In patent publication US4073938A, “19,20-Bis-nor-prostenoic acids as hypolipemic compounds” (Istituto Biochimico Italiano di Loredana Lorenzini S.a.s., priority 1974, dated 1978):
Counter-ions that a name gives are not always drawn.

Columns and labels:
[1] = Triglyceridemia and cholesterolemia in rats given alcohol 10%; format: in vivo, Male Sprague-Dawley rats; details: 1 week endoperitoneal once daily (CPIB, BBA 200 mg/kg; C83 50 mg/kg); for Cholesterolemia: controls 91.5 ± 6.6, alcohol 81.0 ± 4.6; for Triglyceridemia: controls 97.8 ± 5.1, alcohol 169.0 ± 25.0
Experimental: | Treatment for 1 week CPIB - BBA - 200 mg/kg endoperitoneal; C83 | 50mg/kg endoperitoneal; only one daily administration. | Male Sprague-Dawley rats 150 gr. | Groups of 6 rats.

ulcer induced by aspirin = experiment: Anti-ulcerous activity, ulcer from aspirin (9-keto sodium salt); format: in vivo, Female rats of the Wistar stock
Experimental: The anti-ulcerous activity of the compound in question is tested on an ulcer induced by aspirin and on an ulcer induced by phenyl butazone. In both models the mucous lesions are localized in the glandular section of the stomach.
Female rats of the Wistar stock weighing 150-175 g were selected. 24 hours before the start of the test the animals were made to fast, allowing water at will.
Each test group consists of 12 animals. The aspirin is administered orally in the form of a suspension (45 mg in ml of 0.5% carboxymethylcellulose for each animal). The application of the sodium salt in question takes place either intravenously (2 × 5 mg or 1 × 50 mg of substance/kg in 2 ml of 0.9% sodium chloride solution) or orally (2 × 10 mg or 2 × 100 mg of substance/kg in 2 ml of 0.5% carboxymethylcellulose suspension). The first dose is administered 10 minutes before application of the aspirin, and the second dose two and a half hours afterwards. […] The animals are killed 5 hours after application of the aspirin, the stomachs are prepared, and the number and size of the lesions is evaluated with a stereomicroscope.

[2] = system: ulcer induced by phenylbutazone; experiment: Anti-ulcerous activity, ulcer from phenylbutazone (9-keto sodium salt); format: in vivo, Female rats of the Wistar stock
Experimental: The anti-ulcerous activity of the compound in question is tested on an ulcer induced by aspirin and on an ulcer induced by phenyl butazone. In both models the mucous lesions are localized in the glandular section of the stomach. Female rats of the Wistar stock weighing 140-170 g are involved. 24 hours before the start of the test the rats are made to fast, while they are allowed water at will. Each test group consists of 12 animals. For the formation of the ulcer, 200 mg of phenylbutazone/kg in 2 ml of 0.5% gum arabic are administered to the animals orally. 10 minutes before administration of phenylbutazone, and 21/2 hours afterwards, substance in question is administered orally (in 0.5% gum arabic solution) or intravenously (in 0.9% sodium chloride solution) in variable doses (see table). The animals are killed 5 hours after administration of phenylbutazone, the stomachs are prepared and examined under a stereomicroscope, to evaluate the number and size of the lesions.

[3] = Deepness and rapidity test (untitled table 6); format: in vivo, Male Sprague-Dawley rats; details: 200 mg/kg endoperitoneal; for Rapidity ± E.S.: controls 3.4 ± 0.3; for Deepness (mm ± E.S.): controls 74.9 ± 6.2
Experimental: | Treatment with the dose of 200 mg/kg endoperitoneal, one or two hours | before sacrifice. Male Sprague-Dawley rats with an average weight of 150 | gr.

[4] = LD50 by mouth in the mouse; format: in vivo; details: in vivo, po
Experimental: a. LD50 by mouth in the mouse about 3000 mg/kg
25 gr of XVI are dissolved in 400 ml of water with NaOH 15% to pH 9, filtered and lyophilized : 24 gr of sodium salt of XVI as a white solid are obtained, humidity (K. Fisher) 2.08%, no U.V. absorption, equivalent weight found 301.7, I.R. bands at 3400, 1765, 1565, 1460, 1420, 1378 cm^-1.
After 20 hours at 20°, the solvent is evaporated in vacuo, the residue is dissolved in 1300 ml of water treated with 120 ml of acetic acid, extracted with chloroform. After solvent evaporation, 65.1 gr of the compound XVIII are obtained, as an oil, I.R. bands at 3420, 3100, 1710 cm^-1. 35 gr of the compound XVIII are dissolved in 600 ml of water with NaOH to pH 9. The solution is filtered and lyophilized: 35.5 gr of sodium salt of 9-hydroxy-19,20-bis-nor-prostanoic acid are obtained, as white solid, humidity (K.Fisher) 1.73%, no U.V. absorption, equivalent weight found 320, I.R. bands at 3400, 3300, 1565, 1460, 1390 cm^-1, LD50 by mouth in mice about 3000 mg/kg.

## CCOC(=O)C(C)(C)Oc1ccc(Cl)cc1 [CPIB, clofibrate]
[1]
  Cholesterolemia: 59.7 ± 2.9
  Triglyceridemia: 151.2 ± 10.4

## CCCCCCC1=C(CCCCCCC(=O)O)C(=O)CC1 [9-keto-19,20-bis-nor-8(12)-prostenoic acid, sodium salt]
Ulcer induced by aspirin; i.v., 1 × 50 mg/kg, p<0.01
  Ulcer scale (x ± Sx): 5.08 ± 2.38
Ulcer induced by aspirin; i.v., 2 × 5 mg/kg
  Ulcer scale (x ± Sx): 11.80 ± 5.1
Ulcer induced by aspirin; oral and intravenous
  inhibition of ulcerating effect of aspirin (in words): inhibits considerably the ulcerating effect of the aspirin in both oral doses, and in the higher doses in the case of intravenous application
Ulcer induced by aspirin; p.o., 2 × 10 mg/kg, controls 17.95 ± 2.98, p<0.05
  Ulcer scale (x ± Sx): 9.25 ± 2.11
Ulcer induced by aspirin; p.o., 2 × 100 mg/kg, controls 17.95 ± 2.98, p<0.01
  Ulcer scale (x ± Sx): 5.83 ± 2.11
[2]; Rattus norvegicus, iv, 1 × 50 mg/kg
  inhibition at 50 mg/kg: 42.5%
[2]; Rattus norvegicus, iv, 2 × 5 mg/kg
  inhibition at 5 mg/kg: 83.1%
[2]; Rattus norvegicus, po, 2 × 10 mg/kg
  inhibition at 10 mg/kg: 54.9%
[2]; Rattus norvegicus, po, 2 × 100 mg/kg
  inhibition at 100 mg/kg: 80.2%
[2]; i.v., 1 × 50 mg/kg, controls 11.17 ± 2.77
  Ulcer scale (x ± Sx): 6.42 ± 3.41
[2]; i.v., 2 × 5 mg/kg, controls 11.17 ± 2.77, p<0.05
  Ulcer scale (x ± Sx): 3.00 ± 0.92
[2]; orally
  inhibition of ulcerating effect of phenylbutazone (in words): can inhibit the ulcerating effect of phenylbutazone depending on the doses (orally)
[2]; p.o., 2 × 10 mg/kg, controls 9.25 ± 1.81, p<0.05
  Ulcer scale (x ± Sx): 4.17 ± 0.91
[2]; p.o., 2 × 100 mg/kg, controls 9.25 ± 1.81, p<0.01
  Ulcer scale (x ± Sx): 1.83 ± 0.69

## CC(=O)Oc1ccccc1C(=O)O [aspirin, reference compound]
[3]; 1 hour before sacrifice
  Rapidity ± E.S.: 1.2 ± 0.1
  Deepness (mm ± E.S.): 17.7 ± 2.4 mm
[3]; 2 hours before sacrifice
  Rapidity ± E.S.: 2.5 ± 0.2
  Deepness (mm ± E.S.): 48.4 ± 4.4 mm

## CCCCCCC12CCC(O)C1(CCCCCCC(=O)O)O2 (centres unmarked) [sodium salt of XVI, 9-hydroxy-8(12)-epoxy-19,20-bis-nor prostanoic acid]
[4]
  LD50: ~1500 mg/kg

## CC(=Cc1ccccc1)CC(=O)O [BBA, β-benzalbutyric acid]
[1]
  Cholesterolemia: 66.5 ± 1.6
  Triglyceridemia: 143.4 ± 17.8
